Consider 22 compounds from US20220306617A1, “SUBSTITUTED 1,3-PHENYL HETEROARYL DERIVATIVES AND THEIR USE IN THE TREATMENT OF DISEASE” (NOVARTIS AG, priority 2019, published 2022).

The assay concerns the target T1, abc isoform of human TMEM16A channel expressed in CHO cells (Homo sapiens, UniProt Q5XXA6, DEL476-501).
T1 construct: expressed in transfected cells; host or cells: CHO cells, doxycycline-inducible expression under Blasticidin/Zeocin selection
T1 sequence (Q5XXA6 with tags, fused parts or gaps isoform Q5XXA6-5 DEL539-564): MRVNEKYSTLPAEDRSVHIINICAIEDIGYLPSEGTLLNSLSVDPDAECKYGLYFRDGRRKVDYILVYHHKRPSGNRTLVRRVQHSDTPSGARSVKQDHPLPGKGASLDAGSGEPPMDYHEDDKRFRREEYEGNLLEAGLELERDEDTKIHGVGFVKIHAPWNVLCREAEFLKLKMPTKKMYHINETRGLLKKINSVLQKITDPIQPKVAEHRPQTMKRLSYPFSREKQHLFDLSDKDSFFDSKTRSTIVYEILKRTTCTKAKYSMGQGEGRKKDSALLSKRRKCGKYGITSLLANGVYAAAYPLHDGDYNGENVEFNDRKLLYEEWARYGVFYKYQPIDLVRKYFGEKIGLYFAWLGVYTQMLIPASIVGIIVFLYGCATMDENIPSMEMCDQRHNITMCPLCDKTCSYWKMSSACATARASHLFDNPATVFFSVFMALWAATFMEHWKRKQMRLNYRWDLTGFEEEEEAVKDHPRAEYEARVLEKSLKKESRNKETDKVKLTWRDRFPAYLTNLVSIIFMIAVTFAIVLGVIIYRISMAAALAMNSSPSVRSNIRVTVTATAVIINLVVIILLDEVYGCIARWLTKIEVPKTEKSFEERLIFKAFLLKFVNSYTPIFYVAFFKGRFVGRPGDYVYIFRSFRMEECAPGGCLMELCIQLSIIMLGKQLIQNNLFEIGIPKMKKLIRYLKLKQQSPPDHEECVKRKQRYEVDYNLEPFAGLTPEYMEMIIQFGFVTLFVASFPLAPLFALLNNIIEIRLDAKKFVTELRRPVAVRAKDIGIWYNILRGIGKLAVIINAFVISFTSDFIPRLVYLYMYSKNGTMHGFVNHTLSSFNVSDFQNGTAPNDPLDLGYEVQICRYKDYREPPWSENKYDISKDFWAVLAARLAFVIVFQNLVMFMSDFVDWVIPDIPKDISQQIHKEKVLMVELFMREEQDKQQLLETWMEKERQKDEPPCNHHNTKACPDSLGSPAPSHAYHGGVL
Kind of assay: Automated patch clamping (QPatch) assay to measure TMEM16A activity in whole-cell. The class given is cell-based. The conditions noted are these: for EC50: CHO cells expressing human TMEM16A (abc), whole-cell automated patch clamp, Hill fit, read-out: TMEM16A QPATCH assay EC50 V3 EC50; for Emax: CHO, maximum current at highest dose relative to reference potentiator at maximal concentration (upper limit) and vehicle (lower limit), read-out: TMEM16A QPATCH assay EC50 V3 Assay Window (% TMEM16A max activation). An outline of the steps:
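Whole-cell currents were recorded by planar automated patch clamp from induced CHO cells (doxycycline 1 μg/mL, 18-24 h), using a −70 mV hold, +70 mV step and −90 to +70 mV ramp. Values: Hill-fitted EC50, and activation scaled between vehicle current and reference-potentiator maximum; 0.3% DMSO final.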
Background: The patch-clamp technique gives a direct electrical read-out from membranes.

In the case of `CCC(CC)NC(=O)c1cnc(-c2cccc(-c3cc(C(=O)NC(CC)CC)n(CCO)n3)c2)o1` [Example 9.7, 2-(3-(1-(2-Hydroxyethyl)-5-(Pentan-3-Ylcarbamoyl)-1H-Pyrazol-3-Yl)Phenyl)-N-(Pentan-3-Yl)Oxazole-5-Carboxamide], the concentration giving a half-maximal response (EC50) (commonly the concentration needed to bring the measured effect to its halfway point) came to 90 nM and the Emax is 85%.
For `CCC(CC)NC(=O)c1cnc(-c2cccc(-c3cc(C(=O)N[C@@H](C)C4CC4)n(CCO)n3)c2)o1` [Example 9.8, (S)-2-(3-(5-((1-cyclopropylethyl)carbamoyl)-1-(2-hydroxyethyl)-1 H-pyrazol-3-yl)phenyl)-N-(pentan-3-yl)oxazole-5-carboxamide], in that order: 180 nM and 88%.
The matching figures for `CCOC(=O)[C@@H](NC(=O)c1cc(-c2cccc(-c3ncc(C(=O)NC(C4CC4)C4CC4)o3)c2)nn1CC(C)(C)O)C(C)C` [Example 10.0, (S)-Ethyl 2-(3-(3-(5-((Dicyclopropylmethyl)Carbamoyl)Oxazol-2-Yl)Phenyl)-1-(2-Hydroxy-2-Methylpropyl)-1 H-Pyrazole-5-Carboxamido)-3-Methylbutanoate]: 40 nM and 116%.
The matching figures for `C[C@@H](NC(=O)c1cnc(-c2cccc(-c3cc(C(=O)N[C@H](C)C4CC4)n(CCO)n3)c2)o1)C1CC1` [Example 10.1, N-((R)-1-Cyclopropylethyl)-2-(3-(5-(((R)-1-Cyclopropylethyl)Carbamoyl)-1-(2-Hydroxyethyl)-1H-Pyrazol-3-yl)Phenyl)Oxazole-5-Carboxamide]: 320 nM and 101%.
`C[C@H](NC(=O)c1cc(-c2cccc(-c3ncc(C(=O)N[C@H](C)C4CC4)o3)c2)nn1CCO)C1CC1` [Example 10.2, N-((R)-1-Cyclopropylethyl)-2-(3-(5-(((S)-1-Cyclopropylethyl)Carbamoyl)-1-(2-Hydroxyethyl)-1H-Pyrazol-3-Yl)Phenyl)Oxazole-5-Carboxamide]: the EC50 was determined as 680 nM and the Emax turned out to be 108%.
`CCOC(=O)[C@@H](NC(=O)c1cc(-c2cccc(-c3ncc(C(=O)NC(CC)CC)o3)c2)nn1CCOP(=O)(OCC)OCC)C(C)C` [Example 11.0, (S)-Ethyl 2-(1-(2-((Diethoxyphosphoryl)Oxy)Ethyl)-3-(3-(5-(Pentan-3-Ylcarbamoyl)Oxazol-2-Yl)Phenyl)-1H-Pyrazole-5-Carboxamido)-3-Methylbutanoate]: the concentration giving a half-maximal response (EC50) is 610 nM and the Emax was determined as 128%.
As for `C[C@H](NC(=O)c1nnc(-c2cccc(-c3ncc(C(=O)N[C@@H](C)C4CC4)o3)c2)[nH]1)C1CC1` [Example 12.0, N-((S)-1-Cyclopropylethyl)-2-(3-(5-(((S)-1-Cyclopropylethyl)Carbamoyl)-4H-1,2,4-Triazol-3-Yl)Phenyl)Oxazole-5-Carboxamide], the half-maximal effective concentration (EC50) turned out to be 300 nM and the Emax was 63%.
In the case of `C[C@H](NC(=O)c1nnc(-c2cccc(-c3ncc(C(=O)N[C@H](C)C4CC4)o3)c2)[nH]1)C1CC1` [Example 12.1, N-((R)-1-Cyclopropylethyl)-2-(3-(5-(((S)-1-Cyclopropylethyl)Carbamoyl)-4H-1,2,4-Triazol-3-Yl)Phenyl)Oxazole-5-Carboxamide], the half-maximal effective concentration (EC50) is 270 nM and the Emax worked out at 80%.
For `CCOC(=O)[C@@H](NC(=O)c1cnc(-c2cccc(-c3nnc(C(=O)N[C@@H](C)C4CC4)[nH]3)c2)o1)C(C)C` [Example 12.2, (S)-Ethyl 2-(2-(3-(5-(((S)-1-Cyclopropylethyl)Carbamoyl)-4H-1,2,4-Triazol-3-Yl)Phenyl)Oxazole-5-Carboxamido)-3-Methylbutanoate], in that order: 50 nM and 112%.
`COC(=O)[C@@H](NC(=O)c1cnc(-c2cccc(-c3nnc(C(=O)N[C@@H](C)C4CC4)[nH]3)c2)o1)C(C)C` [Example 12.3, (S)-Methyl 2-(2-(3-(5-(((S)-1-Cyclopropylethyl)Carbamoyl)-4H-1,2,4-Triazol-3-Yl)Phenyl)Oxazole-5-Carboxamido)-3-Methylbutanoate]: the EC50 turned out to be 220 nM and the Emax worked out at 92%.
Take `CC(C)[C@H](NC(=O)c1cnc(-c2cccc(-c3nnc(C(=O)N[C@@H](C)C4CC4)[nH]3)c2)o1)C(=O)OC(C)(C)C` [Example 12.4, (S)-Tert-Butyl 2-(2-(3-(5-(((S)-1-Cyclopropylethyl)Carbamoyl)-4H-1,2,4-Triazol-3-Yl)Phenyl)Oxazole-5-Carboxamido)-3-Methylbutanoate]: the half-maximal effective concentration (EC50) is 70 nM and the Emax was 119%.
The matching figures for `C[C@H](NC(=O)c1nnc(-c2cccc(-c3ncc(C(=O)NC(C4CC4)C4CC4)o3)c2)[nH]1)C1CC1` [Example 12.5, (S)-2-(3-(5-((1-Cyclopropylethyl)Carbamoyl)-4H-1,2,4-Triazol-3-Yl)Phenyl)-N-(Dicyclopropylmethyl)Oxazole-5-Carboxamide]: 30 nM and 92%.
For `CCOC(=O)[C@@H](NC(=O)c1cnc(-c2cccc(-c3nnc(C(=O)NC(C4CC4)C4CC4)[nH]3)c2)o1)C(C)C` [Example 12.6, (S)-Ethyl 2-(2-(3-(5-((Dicyclopropylmethyl)Carbamoyl)-4H-1,2,4-Triazol-3-Yl)Phenyl)Oxazole-5-Carboxamido)-3-Methylbutanoate], in that order: 20 nM and 142%.
`C[C@H](NC(=O)c1cnc(-c2cccc(-c3nnc(C(=O)NC(C4CC4)C4CC4)[nH]3)c2)o1)C1CC1` [Example 12.7, (S)-N-(1-Cyclopropylethyl)-2-(3-(5-((Dicyclopropylmethyl)Carbamoyl)-4H-1,2,4-Triazol-3-Yl)Phenyl)Oxazole-5-Carboxamide]: the concentration giving a half-maximal response (EC50) came to 20 nM and the Emax stood at 91%.
For `O=C(NC(C1CC1)C1CC1)c1nnc(-c2cccc(-c3ncc(C(=O)NC(C4CC4)C4CC4)o3)c2)[nH]1` [Example 12.8, N-(Dicyclopropylmethyl)-2-(3-(5-((Dicyclopropylmethyl)Carbamoyl)-4H-1,2,4-Triazol-3-Yl)Phenyl)Oxazole-5-Carboxamide], the EC50 was 20 nM and the Emax was found to be 119%.
As to `COC(=O)[C@@H](NC(=O)c1cnc(-c2cccc(-c3nnc(C(=O)NC(C4CC4)C4CC4)[nH]3)c2)o1)C(C)C` [Example 12.9, (S)-Methyl 2-(2-(3-(5-((Dicyclopropylmethyl)Carbamoyl)-4H-1,2,4-Triazol-3-Yl)Phenyl)Oxazole-5-Carboxamido)-3-Methylbutanoate], the concentration for a half-maximal effect (EC50) was determined as 20 nM and the Emax came out at 134%.
The matching figures for `COC(=O)[C@@H](NC(=O)c1cnc(-c2cccc(-c3nnc(C(=O)N[C@@H](C)C4CC4)[nH]3)c2)o1)C(C)(C)C` [Example 12.10, (S)-Methyl 2-(2-(3-(5-(((S)-1-Cyclopropylethyl)Carbamoyl)-4H-1,2,4-Triazol-3-Yl)Phenyl)Oxazole-5-Carboxamido)-3,3-Dimethylbutanoate]: 190 nM and 92%.
For `CC(C)[C@H](C)NC(=O)c1cnc(-c2cccc(-c3nnc(C(=O)N[C@@H](C)C4CC4)[nH]3)c2)o1` [Example 12.11], in that order: 150 nM and 80%.
On to `CC(C)OC(=O)[C@@H](NC(=O)c1cnc(-c2cccc(-c3nnc(C(=O)N[C@@H](C)C4CC4)[nH]3)c2)o1)C(C)C` [Example 12.12], for which the concentration giving a half-maximal response (EC50) came out at 190 nM and the Emax turned out to be 92%.
The matching figures for `COC(=O)[C@H](CC(C)C)NC(=O)c1cnc(-c2cccc(-c3nnc(C(=O)N[C@@H](C)C4CC4)[nH]3)c2)o1` [Example 12.13]: 290 nM and 99%.
For `CCOC(=O)[C@@H](NC(=O)c1cnc(-c2cccc(-c3nc(C(=O)NC(C4CC4)C(F)(F)F)n[nH]3)c2)o1)C(C)C` (some centres unmarked) [Example 12.14], in that order: 80 nM and 97%.
For `C[C@H](NC(=O)c1nnc(-c2cccc(-c3ncc(C(=O)NC4(C5CC5)CC4)o3)c2)[nH]1)C1CC1` [Example 12.15], in that order: 390 nM and 72%.
